pEC50: −log10 of the molar value.
What follows are compounds tested on hypoxia-inducible endogenous VEGF expression in HeLa cells (assay: Hypoxia-inducible endogenous VEGF expression, VEGF ELISA of conditioned media (dose-response EC50)). Settings: HeLa cells, hypoxic conditions (1% O2, 5% CO2).
Type: cell-based
In short: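 Secreted VEGF was quantified by ELISA against a per-assay standard curve after HeLa cells spent 24-48 h in 1% O2, 5% CO2, N2 balance with or without compound. Across a series of, e.g., seven concentrations, percentage inhibition (max 100%, min 0%) gave EC50 and CC50 values.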

Q: How did the pEC50 turn out when O=C(Oc1ccc(F)cc1)N1CCc2c([nH]c3ccc(Cl)cc23)C1c1ccc(OCCCn2ccnc2)cc1 (centres unmarked) [Compound 994] was run?
A: > 8.10

Same assay, conditions: Homo sapiens, HeLa cells under hypoxic conditions

Q: How did the pEC50 turn out when CCOC(=O)N1CCc2c([nH]c3ccc(Br)cc23)C1c1ccc(C(C)C)cc1 (centres unmarked) [Compound 7] was run?
A: > 8.10

Q: CC(C)c1ccc(C2c3[nH]c4ccc(Br)cc4c3CCN2c2ncccn2)cc1 (centres unmarked) [Compound 25] was tested. Which pEC50 did it give?
A: > 8.10

Same assay, conditions: Homo sapiens, HeLa cells, hypoxic conditions (1% O2, 5% CO2)

Q: With O=C(Oc1ccc(Cl)cc1)N1CCc2c([nH]c3ccc(Cl)cc23)C1c1ccc(N2CCCC2)cc1 (centres unmarked) [Compound 984] as the compound, how does the pEC50 read?
A: 6.00 to 6.70

Q: CC(=O)N1CCN(CCCOc2ccc(C3c4[nH]c5ccc(Cl)cc5c4CCN3C(=O)Oc3ccc(F)cc3)cc2)CC1 (centres unmarked) [Compound 988] was tested. Which pEC50 did it give?
A: > 8.10

Q: O=C(Oc1ccc(F)cc1)N1CCc2c([nH]c3ccc(Cl)cc23)C1c1ccc(OCCCN2CCOCC2)cc1 (centres unmarked) [Compound 989] was tested. Which pEC50 did it give?
A: > 8.10

Q: How did the pEC50 turn out when COCCN(CCCOc1ccc(C2c3[nH]c4ccc(Cl)cc4c3CCN2C(=O)Oc2ccc(F)cc2)cc1)CCOC (centres unmarked) [Compound 990] was run?
A: > 8.10

Q: How did the pEC50 turn out when O=C(Oc1ccc(F)cc1)N1CCc2c([nH]c3ccc(Cl)cc23)C1c1ccc(OCCCN2CCSCC2)cc1 (centres unmarked) [Compound 991] was run?
A: 6.70 to 7.40

Q: How did the pEC50 turn out when COCCN(C)CCCOc1ccc(C2c3[nH]c4ccc(Cl)cc4c3CCN2C(=O)Oc2ccc(F)cc2)cc1 (centres unmarked) [Compound 992] was run?
A: 6.70 to 7.40

Q: How did the pEC50 turn out when CN1CCN(CCCOc2ccc(C3c4[nH]c5ccc(Cl)cc5c4CCN3C(=O)Oc3ccc(F)cc3)cc2)CC1 (centres unmarked) [Compound 993] was run?
A: > 8.10

Q: O=C(Oc1ccc(F)cc1)N1CCc2c([nH]c3ccc(Cl)cc23)C1c1ccc(OCCCn2ccnn2)cc1 (centres unmarked) [Compound 995] was tested. Which pEC50 did it give?
A: > 8.10

Q: O=C(Oc1ccc(Cl)cc1)N1CCc2c([nH]c3ccc(Cl)cc23)C1c1ccc(OCC(O)Cn2cncn2)cc1 (centres unmarked) [Compound 996] was tested. Which pEC50 did it give?
A: > 8.10

What follows are compounds tested against T1, recombinant PDE5 (Homo sapiens, UniProt O76074) (assay: PDE5 activity, High-Efficiency Fluorescence Polarization Assay (HEFP)). Settings: 45 minutes at room temperature, vs positive control Tadalafil, FIG. 12.
T1 construct: purchased CalBioChem
Type: biochemical
Protocol: The compounds of the invention are tested to assess their affect on phosphodiesterase 5 (PDE5) activity. The affect on PDE5 activity is determined using the High-Efficiency Fluorescence Polarization Assay (HEFP) kit from Molecular Devices. The HEFP assay measures the activity of PDE-5 by using fluorescein-labeled derivatives of cGMP as a substrate. When hydrolyzed by PDE-5, fluorescein-labeled cGMP derivatives are able to bind to a binding reagent. The cGMP substrate:binding reagent complex results in a highly polarized fluorescent state.
After combining recombinant PDE5 (CalBioChem) and the cGMP substrate, the mixture is incubated at room temperature for 45 minutes in the presence or absence of compounds or a positive control (Tadalafil). The reaction is stopped upon addition of the binding reagent. Fluorescence polarization is determined on a Viewlux using a setting recommended by the manufacturer.

Q: For CCOC(=O)N1CCc2c([nH]c3ccc(Br)cc23)C1c1ccc(C(C)C)cc1 (centres unmarked) [Compound 7], which PDE-5 activity is on record?
A: do not inhibit the activity of PDE-5

Q: With CC(C)c1ccc(C2c3[nH]c4ccc(Br)cc4c3CCN2c2ncccn2)cc1 (centres unmarked) [Compound 25] as the compound, how does the PDE-5 activity read?
A: do not inhibit the activity of PDE-5

From patent publication US8076352B2, “Administration of carboline derivatives useful in the treatment of cancer and other diseases” (PTC Therapeutics, Inc., priority 2004, dated 2011)
